Reference: patent US11241477B2, “Oxytocin compositions for treatment of tinnitus” (New York University, priority 2019, dated 2022)

System: tinnitus
Assay: clinical use of intranasal oxytocin formulations to treat tinnitus
Type: in vivo, human
Source text: In an aspect, this disclosure provides a method for treating tinnitus. The method comprises administering intranasally to an individual a composition comprising or consisting essentially of oxytocin, wherein such administration results in treatment of tinnitus. The effectiveness of treatment of tinnitus may be monitored by quantifying tinnitus, such as by self-evaluation using clinically accepted techniques. An example is the Tinnitus Handicap Inventory (“THI”), a validated and published measurement technique. (Newman et al., Arch Otolaryngol Head Neck Surg, 1996, February 122(2), 143-8). In an embodiment, the improvement in an individual using THI may comprise an improvement of at least 10%. In various embodiments, the improvement may comprise from 10-100%, such as at least 20, 30, 40, 50, 60, 70, 80, 90, 95, or 99%. This example describes clinical use of the present formulations to treat tinnitus. […] The formulation contained oxytocin, magnesium chloride, citric acid, and sodium citrate in sterile water. […] The dose was then increased to 45 IU (3 sprays of 15 IU) 4 times daily. […] A thickener was then added to the formulation keeping the oxytocin amount the same. […] Their score on the Tinnitus Handicap Inventory reduced from a pretreatment score of 96 (meaning a catastrophic level) to a current score of 14 (meaning mild or no tinnitus). The patient has remained improved over 1 year since initiating therapy. Their current dose is 22.5 IU in each nostril 4 times daily. Since their tinnitus occurs in distinct cycles, at times when tinnitus severity is loudest, they increase the dose to 5 times daily for 2 days. […] Their current handicap inventory is 8. […] The dose was increased to 45 IU 4 times daily resulting in a decrease in tinnitus volume by approximately 30%. In another patient, who developed constant tinnitus after a neck injury one year ago, a dose of 45 IU (22.5 IU in each nostril) 4 times daily was used for 30 days and is still ongoing. It has provided about 15% improvement. […] In another patient with constant tinnitus a dose of 30 IU 4 times daily has been started and treatment is ongoing.

[1] = patient with constant tinnitus, 30 IU 4 times daily, after 2 weeks
[2] = second patient, 45 IU twice daily

CC[C@H](C)[C@@H]1NC(=O)[C@H](Cc2ccc(O)cc2)NC(=O)[C@@H](N)CSSC[C@@H](C(=O)N2CCC[C@H]2C(=O)N[C@@H](CC(C)C)C(=O)NCC(N)=O)NC(=O)[C@H](CC(N)=O)NC(=O)[C@H](CCC(N)=O)NC1=O [oxytocin]
time remained improved since initiating therapy (first patient): over 1 year
current handicap inventory (first patient, 22.5 IU in each nostril 4 times daily, 5 times daily for 2 days when loudest): 8
time without tinnitus (first patient, 22.5 IU in each nostril 4 times daily, 5 times daily for 2 days when loudest, past 3 months): ≤ 10 days
relief of tinnitus (first patient, 45 IU (3 sprays of 15 IU) 4 times daily, no thickener): significant relief
patient-reported benefit (first patient, 60 IU daily (30 IU twice daily), oxytocin, magnesium chloride, citric acid, sodium citrate in sterile water): partial benefit
score on the Tinnitus Handicap Inventory (first patient, formulation with thickener, pretreatment score 96 (catastrophic level)): 14
relief of tinnitus (first patient, initial dose of less than 20 IU daily, intranasal): did not provide any relief
tinnitus free period (first patient, thickener added to the formulation, oxytocin amount the same (45 IU 4 times daily)): several days of tinnitus free period
relief of tinnitus (lower amounts of oxytocin (such as under 20 IU per day)): did not result in any significant relief
improvement (patient with constant tinnitus after neck injury, 45 IU (22.5 IU in each nostril) 4 times daily for 30 days): about 15%
tinnitus volume (patient with constant tinnitus after neck injury, dose raised to 5 times daily on occasions): diminished tinnitus volume
time without noticing the tinnitus [1]: several hours per day without noticing the tinnitus
tinnitus intensity [1]: tinnitus intensity has lowered
benefit (patient with drug-caused tinnitus, 30 IU twice daily): without benefit
decrease in tinnitus volume (patient with drug-caused tinnitus, 45 IU 4 times daily): approximately 30%
benefit [2]: significant benefit
reduction of tinnitus volume [2]: 45-60%
time remaining improved on dosing schedule [2]: more than a year
tinnitus free days [2]: some days in which they are tinnitus free
